# Assay results from the NIST ThermoML archive (doi:10.1021/je8006265).
# ± gives the expanded uncertainty stated by the source.
# Settings: 298.15 K; 101.33 kPa; Crystal
row,Compound,mass density [kg/m3]
1,c1ccc2[nH]ccc2c1 [1H-indole],1216.68 ± 1.9

# Same assay, conditions: 298.15 K; 101.33 kPa; Liquid
row,Compound,mass density [kg/m3]
1,Nc1ccccc1 [aniline],1017.42 ± 0.2
2,c1cc[nH]c1 [pyrrole],965.9 ± 2.9
3,CCCCCCCCCCCCCCCC [hexadecane],773.19 ± 0.32
4,c1ccc2ncccc2c1 [quinoline],1089.45 ± 0.31
5,c1ccncc1 [pyridine],978.25 ± 0.27
